Assay results published in patent publication US20240026261A1, “ENGINEERING OF ORGANOID CULTURE FOR ENHANCED ORGANOGENESIS IN A DISH” (THE TRUSTEES OF THE UNIVERSITY OF PENNSYLVANIA, priority 2020, published 2024).

What was measured:
Type in all cases: cell-based, mouse
[1] = system: intestinal organoids; assay: Intracellular calcium imaging (Fluo-4) of intestinal organoids
Description: To assess the level of intracellular calcium, the organoids were labeled with a fluorescent calcium indicator dye (Fluo-4) and monitored their fluorescence in real-time. Given the multicellular complexity of organoids, the mean fluorescence intensity was measured from representative organoids selected for analysis. Upon treatment with 100 μM ATP, organoids in the device increased their fluorescence by approximately 1.6-fold within 60 seconds, which was followed by a gradual decrease to the baseline level (FIG. 4E).
For calcium imaging, the organoid media were removed from the culture wells, and the organoid constructs were washed once in live-cell imaging solution (LCIS). The organoids were then loaded with Fluo-4 calcium imaging solution (F10489, ThermoFisher Scientific, USA) prepared according to the manufacturer's protocol. The samples were incubated at 37° C. for 30 minutes, which was followed by another 30-minute incubation at room temperature. Subsequently, the Fluo-4 solution was removed, and the organoids were washed once with LCIS. All samples were kept in fresh LCIS until use. An inverted epi-fluorescence microscope (Axio Observer D1, Zeiss, Germany) was used to visualize calcium staining of organoids upon stimulation with 100 μM of ATP (A1852, Sigma, USA) and 50 mM of glucose (G7021, Sigma, USA).
For ratiometric analysis of changes in Ca2+ levels, fluorescence intensity for each or-ganoid was measured during an experiment, and values were normalized by their resting intensities using the equation below.
ΔCa^2+=(F−Frest)/Frest (1)

[2] = system: co-culture of intestinal organoids and primary intestinal fibroblasts (released fibronectin); assay: Intestinal fibrosis model in OCTOPUS, released fibronectin by ELISA of conditioned media
From the text: (§1) The difference between the two groups became evident within 3 days of treatment and remained statistically significant throughout the culture period (FIG. 6I). […] Consistent with the analysis of fibroblast activation and proliferation (FIG. 6E, FIG. 6F), from the comparison between co-culture and monoculture models, intestinal organoids potentiate the fibrogenic effect of TGF-β and promote FN production by fibroblasts (FIG. 6I, FIG. 6J) were identified.
(§2) First, fibrotic intestinal tissue constructs in OCTOPUS were generated by forming co-culture organoids over 5 days and exposing them to TGF-β for another 7 days as described above (day 5-day 12). These constructs were then treated with clinically relevant concentrations of the drugs for 48 hours (day 13-day 14) within the therapeutic window identified by viability assessment (data not shown). […] At 0.1 mM, Pirfenidone was effective for altering the contractile phenotype of fibroblasts, as illustrated by 50% reduction in αSMA compared to the untreated control (FIGS. 6L to 6O).
For the analysis of fibronectin production in the intestinal fibrosis model, a mouse fibronectin ELISA kit (ab108849, abcam, USA) was used. The media in the wells were collected at specified time points and assayed using manufacturer-provided protocols. First, 50 μl of standard or device-collected samples were added into each well and incubated for 2 hours at room temperature. Subsequently, the wells were washed 5 times with 300 μl of wash buffer solution and then incubated with fibronectin antibody for 1 hour. […]
For all ELISA assays, a multimode plate reader (M200, Tecan, Switzerland) was used to measure the optical density of samples. […]
(§3) To form an intestinal fibrosis model suitable for, e.g. drug testing, in OCTOPUS, mouse intestinal stem cells were mixed with 1×10^6 cells/ml of mouse intestinal fibroblasts in Matrigel (356255, Corning, USA). […] The fibrosis model was treated with drugs for 48 hours, after which changes in its fibrotic phenotype were analyzed using the methods described herein.

[3] = system: co-culture of intestinal organoids and primary intestinal fibroblasts (fibronectin); assay: Intestinal fibrosis model in OCTOPUS, fibronectin (FN) deposition by immunofluorescence
From the text: as §1, §2
(§4) To form an intestinal fibrosis model suitable for, e.g. drug testing, in OCTOPUS, mouse intestinal stem cells were mixed with 1×10^6 cells/ml of mouse intestinal fibroblasts in Matrigel (356255, Corning, USA). This cell-containing hydrogel solution was injected into the device to form microtissue constructs in the organoid culture chambers. After gelation for 15 minutes in a regular cell culture incubator, 750 μl of IntestiCult™ organoid growth medium (06005, STEMCELL Technologies, Canada) was added into each well and maintained for 5 days to induce intestinal organoid development and fibroblast proliferation. During this period, the media were replenished every other day. To induce fibrosis, 1 ng/ml of TGF-β (T5050, Sigma, USA) was added to the culture wells on day 5 and maintained for additional 7 days. Drug administration occurred on day 12 using commercially available Pirfenidone (P1871, TCI America, USA) and Nintedanib (S1010, Selleckchem, USA) at specified concentrations. The fibrosis model was treated with drugs for 48 hours, after which changes in its fibrotic phenotype were analyzed using the methods described herein.
(§5) For immunofluorescence staining, cells in OCTOPUS were washed with PBS twice, fixed with 4% paraformaldehyde (Electron Microscopy Sciences, USA) for 15 minutes at room temperature, and washed again twice with PBS. The cells were then permeabilized with 0.1% Triton X-100 (Sigma) in PBS for 3 minutes and exposed to blocking buffer composed of PBS and 3% bovine serum albumin (BSA; Sigma) for overnight at 4° C. […]

[4] = system: co-culture of intestinal organoids and primary intestinal fibroblasts (αSMA); assay: TGF-β-induced intestinal fibrosis model in OCTOPUS, αSMA immunofluorescence (fibroblast activation); conditions: for increase in level of αSMA expression in comparison to untreated tissues: TGF-β 1 ng/ml from day 5
From the text: To this end, OCTOPUS was used to set up a co-culture of intestinal organoids and primary intestinal fibroblasts in the same hydrogel scaffold and generate a multicellular construct reminiscent of the intestinal epithelium and its underlying stroma in vivo (FIG. 6A). In this mixed co-culture configuration, the intestinal progenitor cells embedded in Matrigel developed into or-ganoids over the course of 5 days or so, during which fibroblasts began to spread and proliferate around the nascent organoids. […] Prolonged culture in this device led to the formation of microtissues densely populated with enlarged organoids and fibroblasts (FIG. 6C).
(§6) To simulate the scenario of using this system to assess intestinal fibrosis in a conventional laboratory setting, a common technique widely used for in vitro modeling of fibrosis, which was to treat the co-culture construct with transforming growth factor (TGF)-β, were used. TGF-β plays a central role in the pathogenesis of fibrosis in the intestine and other organs by inducing the activation of fibroblasts and their transdifferentiation into myofibroblasts, which are the key effector cells that drive fibrogenesis. To trigger fibrogenic responses, the model was treated with TGF-β at 1 ng/ml from day 5 to day 12. Exposure of the intestinal microtissue to this condition indeed caused the fibroblasts to acquire the contractile phenotype of myofibroblasts, as evidenced by robust expression of alpha-smooth muscle actin (αSMA) (FIG. 6D). In comparison to untreated tissues, the level of expression increased by more than 1.9- and 2.9-fold by day 8 and day 12, respectively (FIG. 6E).
as §2, §4, §5

[5] = system: co-culture microtissues of intestinal organoids and fibroblasts; assay: Intestinal fibrosis model in OCTOPUS, tissue stiffness by atomic force microscopy; conditions: for stiffness of the TGF-β-treated fibrotic tissues (AFM): administered at higher doses
Description: To further validate the fibrotic phenotype of the model, the stiffness of the TGF-β-treated microtissues was measured by using atomic force microscopy (AFM). This measurement was greatly facilitated by the open-top design of OCTOPUS that allowed direct access of the AFM probe to the tissue constructs in the culture chambers (FIG. 6K). […] As expected, treatment of this model with TGF-01 led to a marked increase in the extent of tissue stiffening and generated co-culture constructs that were 2.9 times stiffer than those in the untreated devices (FIG. 6K).
The average stiffness measured in the fibrosis model treated with 0.5 mM Pirfenidone (3.5 kPa) closely matched that of normal tissue constructs (3.3 kPa), illustrating the potential of Pirfenidone to normalize the mechanical property of fibrotic intestinal tissues in the model system.
as §4
Atomic force microscopy (AFM, MFP-3D-BIO, Asylum) was used to measure the stiffness of hydrated microtissues in the intestinal fibrosis models. A gold-coated cantilever (SCONT tip, NANOSENSORS) with a spring constant of 14.58 pN/nm and a pyramid indenter was used to obtain force-indentation curves. The tissue samples in the open chambers were used directly without any modification. For the AFM measurement, the OCTOPUS insert containing microtissue was removed from the plate and mounted on the instrument. After wetting the microtissue with a drop of PBS, its mechanical property was measured with the scanning probe. Young's modulus was calculated from the force indentation data using the Atomic J software.

[6] = system: primary intestinal fibroblasts co-cultured with intestinal organoids; assay: Intestinal fibrosis model in OCTOPUS, fibroblast proliferation; conditions: TGF-β 1 ng/ml from day 5; by day 12
From the text: as §6, §3

[7] = 0.5 μM, 48 hours, to levels comparable to Pirfenidone at 0.5 mM
[8] = higher-dose (0.5 mM) treatment, 48 hours

## Nc1ncnc2c1ncn2[C@@H]1O[C@H](COP(=O)(O)OP(=O)(O)OP(=O)(O)O)[C@@H](O)[C@H]1O [ATP]
[1]; 100 μM, hydrogel drop culture, versus OCTOPUS
  calcium response of the conventional model (Matrigel drop): noticeably slower and occurred to a lesser extent
[1]; 100 μM, organoids in OCTOPUS, within 60 seconds
  increase in Fluo-4 fluorescence (intracellular calcium): approximately 1.6 fold

## O=C[C@H](O)[C@@H](O)[C@H](O)[C@H](O)CO [D-glucose]
[1]; 50 mM, organoids in OCTOPUS
  increase in intracellular calcium in OCTOPUS: greater than that induced by ATP stimulation

## COC(=O)c1ccc2c(c1)NC(=O)/C2=C(\Nc1ccc(N(C)C(=O)CN2CCN(C)CC2)cc1)c1ccccc1 [Nintedanib]
[2]; 0.5 μM, 48 hours
  concomitant reduction in the concentration of released FN (ELISA): not observed
[3]; [7]
  FN accumulation: decreased substantially
[4]; [7]
  fibroblast activation (αSMA): decreased substantially
[4]; lower dose 0.1 μM, 48 hours
  effects on the fibrosis model (αSMA, FN): failed to exert significant effects
[5]; 48 hours
  stiffness of the TGF-β-treated fibrotic tissues (AFM): significantly decreased

## Cc1ccc(=O)n(-c2ccccc2)c1 [Pirfenidone]
[2]; 48 hours treatment
  amount of FN released from the model (ELISA): reduced
[3]; 48 hours treatment
  immunofluorescence of FN in drug-treated fibrotic constructs: significantly decreased
[3]; [8]
  level of FN production versus normal group (healthy intestinal tissue): statistically indistinguishable
[4]; 0.1 mM, 48 hours, TGF-β-induced fibrotic constructs
  reduction in αSMA compared to the untreated control: 50%
[4]; dose increased to 0.5 mM, 48 hours
  expression of αSMA: further decreased
[4]; [8]
  level of αSMA expression versus normal group (healthy intestinal tissue): statistically indistinguishable
[5]; 0.5 mM, 48 hours, normal tissue constructs 3.3 kPa
  average stiffness of the treated fibrosis model: 3.5 kPa
[5]; 48 hours
  stiffness of the TGF-β-treated fibrotic tissues (AFM): significantly decreased

## transforming growth factor (TGF)-β [TGF-β]
[2]; TGF-β 1 ng/ml, day 5 to day 12
  released FN (ELISA of conditioned media): higher levels of released FN
[3]; TGF-β 1 ng/ml, day 5 to day 12
  FN in the pericellular regions of fibroblasts (immunostaining) compared to untreated tissues: substantially increased
[4]; by day 8
  increase in level of αSMA expression in comparison to untreated tissues: more than 1.9 fold
[4]; by day 12
  increase in level of αSMA expression in comparison to untreated tissues: > 2.9 fold
[5]; TGF-β-treated co-culture constructs, AFM
  average tissue stiffness: 10.1 kPa
[5]; TGF-β-treated, AFM, 14 days culture
  stiffness of co-culture constructs relative to untreated devices: 2.9 times
[6]
  fibroblast proliferation, cells compared to the untreated control group: approximately twice as many cells
